Data published in patent publication US20250213579A1, “COMBINATION THERAPIES” (MIRATI THERAPEUTICS, INC., priority 2018, published 2025).
Where two headings read alike, the source gives them in different places.

System: H2122 cells
Conditions: H2122 tumors, nude/nude mice, Compound 478 100 mg/kg and/or Dasatinib 50 mg/kg p.o. daily
Experimental: Immunocompromised nude/nude mice were inoculated in the right hind flank with cells or patient derived tumor samples harboring a KRas G12C mutation. When tumor volumes reached between 200-400 mm^3 in size, the mice were divided into four groups of 5-12 mice each. The first group was administered vehicle only. […] The fourth group was administered the single agent dose of the KRas G12C inhibitor in combination with the single agent dose of the Src-family kinase inhibitor. […] Tumor volumes were measured using a caliper every two-three days and tumor volumes were calculated by the formula: 0.5×(Length×Width)^2.
Tumor volumes were measured at pre-specified days set forth below.

## Cc1nc(Nc2ncc(C(=O)Nc3c(C)cccc3Cl)s2)cc(N2CCN(CCO)CC2)n1 [Dasatinib, N-(2-chloro-6-methylphenyl)-2-((6-(4-(2-hydroxyethyl)piperazin-1-yl)-2-methylpyrimidin-4-yl)amino)thiazole-5-carboxamide]
Day 11 from inoculation (start of dosing)
  Average Tumor Volumes: 324 mm^3
Day 13 from inoculation
  Average Tumor Volumes: 492 mm^3
Day 15 from inoculation
  Average Tumor Volumes: 596 mm^3
Day 18 from inoculation
  Average Tumor Volumes: 820 mm^3
Day 20 (Treatment Day 9)
  tumor growth inhibition: 23.5%
Day 20 from inoculation
  Average Tumor Volumes: 938 mm^3
Day 22 from inoculation
  Average Tumor Volumes: 1086 mm^3
Day 25 from inoculation
  Average Tumor Volumes: 1216 mm^3
